Test results from patent publication US9265709B2, “Use of peptides as antidandruff agents” (L'OREAL, priority 2009, dated 2016).
Ends that are not written are not given here.

Tested on: M. furfur
Test: Antimicrobial activity (MIC) micromethod in microplates on microorganisms responsible for dandruff
Format: cell-based
Settings: Sabouraud medium with 10% olive oil, 24 to 48 hours at 32.5° C., OD 620 nm vs control without peptide, peptide tested at 0.1%, 0.25%, 0.5% and 1%
Procedure: The antimicrobial activity of the peptides used according to the invention may be evaluated by measuring their minimum inhibitory concentration (MIC). Decreasing concentrations of peptides are contacted with standardised inoculum of microorganisms in a culture medium suitable for growth of said microorganisms in exponential growth phase. After incubation at the suitable temperature for the microorganism, the growth is evaluated by an OD (620 nm) measurement. […] The MIC obtained may be compared with the same measurement performed only with solvent (without the peptide) or with a compound of known antibiotic activity. This test may also be used to test the selectivity of the peptides used. This method can be used to determine the effect of the test peptide on a beneficial microorganism of the microbial flora of the scalp such as Staphylococcus epidermidis. Peptides that give on the strains responsible for desquamative disorders of the hair and/or the scalp (e.g., M. furfur) better inhibition than on the beneficial strains (e.g., S. epidermidis) will be selected.
The test has been carried using a micromethod in microplates. […]
After incubation of the microplate from 24 to 48 hours at 32.5° C., optical density at 620 nm has been measured. […]

Substance | MIC
GLWSTIKNVGKEAAIAAGKAALGAL-NH2 (listed as Phyllomedusa hypochondrialis) [DPh-1] | <0.1%
FLSLIPHAINAVSAIAKHF-NH2 (listed as Phyllomedusa azurea) [PS-7] | <0.1%
